Consider seven molecules from US20240277742A1, “TRANSLATION INHIBITOR WITHOUT OCCUPYING RIBOSOME RESOURCES AS ANTI-TUMOR DRUG” (CHI BIOTECH CO., LTD., priority 2022, published 2024).

Each structure is given as a SMILES string.

Data set [1] deals with ribosomes. Put plainly: Sucrose density ultracentrifugation (polysome profiling) of drug-treated cell lysates. The class given is cell-based. Conditions: methyl aurintricarboxylate 50 μg/mL; Harringtonin 10 μg/mL; Kasugamycin 10 μg/mL; Pateamine A 2 μM; Hippuristanol 1 μM. How it is done:
Example 2 Proof that methyl aurintricarboxylate, Kasugamycin and Hippuristanol are all translation inhibitors without occupying ribosome resources Using methods well known to those skilled in the art, sucrose density ultracentrifugation (polysome profiling) was carried out to measure polysomes. Ultracentrifugation was performed on normal cell lysates and drug-treated cell lysates at 15-50% sucrose density gradient, the solution was pumped out slowly, and OD260 nm (260 nm Optical Density) was measured. In FIG. 2A, the black line, gray solid line and gray dashed line are the experimental curves of normal cells, cells treated with methyl aurintricarboxylate (concentration 50 μg/mL) and cells treated with Harringtonin (concentration 10 μg/mL) respectively. In FIG. 2B, the gray solid line, gray dashed line, and black dotted line are the experimental curves of cells treated with Kasugamycin (concentration 10 μg/mL), Pateamine A (concentration 2 μM), and Hippuristanol (concentration 1 μM), respectively. The peak heights of the curves are related to concentration.

The subject of data set [2] is human breast cancer cell line MDA-MB-468. Put plainly: Transwell invasion assay. It counts as cell-based. Particulars: MDA-MB-468, 50 nM, 24 h. How it is done:
(§1) The human breast cancer cell line MDA-MB-468 was incubated and 50 nM Hippuristanol was then added. The well-known Transwell migration and invasion assays were carried out. 100,000 cells were added to the Transwell chamber, migration/invasion was carried out for 24 h, and crystal violet staining was performed.

Data set [3] relates to A549 lung cancer cells. Put plainly: Nude-mouse lung cancer xenograft model, tumor diameter. The class given is in vivo, nude mice. Particulars: gavage, daily dose 10 mg/kg, days 1, 3, 5. The method, then:
Using techniques well known in the art, the tumor inhibition assay of Hippuristanol was carried out on a nude-mouse xenograft model. Nude mice were subcutaneously injected with A549 lung cancer cells. After the tumors formed, Hippuristanol was administered by gavage once at a daily dose of 10 mg/kg. On days 1, 3, and 5, the tumor diameters of the nude mice were measured in vivo.

Data set [4] has as its system human breast cancer cell line MDA-MB-468. Kind of data set: Transwell migration assay. The class given is cell-based. Conditions: MDA-MB-468, 50 nM, 24 h. The method, then: as §1
For data set [5] the test system is unchanged. Kind of data set: Cell proliferation by sulforhodamine B assay. It counts as cell-based. Particulars: MDA-MB-468, 1 mg/L. How it is done:
The human breast cancer cell line MDA-MB-468 was cultured, 1 mg/L Kasugamycin was then added, and cell proliferation was measured by the sulforhodamine B assay well known in the art (see Qin et al., BAPI promotes breast cancer cell proliferation and metastasis by deubiquitinating KLF5, Nature Communications 6:8471).

The subject of data set [6] is H1299 lung cancer cells. Put plainly: Nude-mouse lung cancer xenograft model, tumor diameter. It counts as in vivo, nude mice. Particulars: gavage once, 10 μg/kg, days 1, 3, 5. The method, then:
Using techniques well known in the art, the tumor inhibition assay of Kasugamycin was carried out on a nude-mouse xenograft model. Nude mice were subcutaneously injected with H1299 lung cancer cells. After the tumors formed, kasugamycin was administered (by gavage) once at a dose of 10 μg/kg. On days 1, 3, and 5, the tumor diameters of the nude mice were measured in vivo.

Data set [7] relates to cancer cells (A549 and H1299). Put plainly: Cell apoptosis, onset concentration comparison under the same conditions. Conditions: same experimental conditions as methyl aurintricarboxylate. It counts as cell-based. The method, then:
(§2) Cell migration, cell invasion, cell apoptosis, cell colony formation and cytotoxicity experiments were carried out using methods well known to those skilled in the art. […] (3) Cell apoptosis: Cells were fluorescently labeled using Annexin V, and the occurrence of cell apoptosis was tested under a fluorescence microscopy or on a flow cytometer. […] As the concentration of methyl aurintricarboxylate increases (final concentration: 10 μg/mL, 20 μg/mL, 40 μg/mL), the percentage of apoptosis of cancer cells increases. The percentage of apoptosis of cancer cells is positively correlated with the concentration of methyl aurintricarboxylate. Under the same experimental conditions, the onset concentration of aurintricarboxylic acid (0.25-0.5 mg/mL) is 12.5 to 25 times that of methyl aurintricarboxylate.

Data set [8] has as its system lung cancer A549 cells. Conditions: cisplatin concentration adopted (50 μM), from reported procedure; cited from earlier work.
Data set [9] has as its system ES-2 human ovarian cancer cell line. Kind of data set: Apoptosis by Annexin V flow cytometry assay. It counts as cell-based. How it is done:
(§3) Apoptosis assay was carried out using human normal fibroblasts (primary culture) as normal controls and ES-2 human ovarian cancer cell line as cancer cells. […] (c) Apoptosis was tested by Annexin V flow cytometry assay. In the figure, cells in the area Q1 are non-apoptotic cells, cells in the area Q3 are early apoptotic (the key area for observing apoptosis), and cells in the area Q2 are late apoptotic, including some necrotic cells.
A general note: Flow cytometry measures light scatter and fluorescence of single cells or particles in a stream.

For data set [10], the system named is human normal fibroblasts (primary culture). Kind of data set: Apoptosis by Annexin V flow cytometry assay. Particulars: 20 μg/mL to 50 μg/mL, 48 h. The class given is cell-based. The method, then: as §3
For data set [11], the system named is A549 cells. Kind of data set: Cell apoptosis, Annexin V labelling. The class given is cell-based. Particulars: A549, 10, 20, 40 μg/mL, increases with concentration. How it is done: as §2
Data set [12] deals with H1299 cells. Put plainly: Cell apoptosis, Annexin V labelling. The class given is cell-based. Particulars: H1299, 10, 20, 40 μg/mL, increases with concentration. How it is done: as §2
Data set [13] has as its system A549 cells. Put plainly: Transwell invasion assay. It counts as cell-based. Conditions: A549, 20 μg/mL, vs blank control. How it is done:
(§4) Cell migration, cell invasion, cell apoptosis, cell colony formation and cytotoxicity experiments were carried out using methods well known to those skilled in the art. […] (2) Cell invasion: Transwell invasion assay was carried out on HBE, A549 and H1299 cells treated with or without methyl aurintricarboxylate (final concentration 20 μg/mL).

The subject of data set [14] is H1299 cells. Put plainly: Transwell invasion assay. It counts as cell-based. Conditions: H1299, 20 μg/mL, vs blank control. How it is done: as §4
For data set [15], the system named is HBE cells. Kind of data set: Cell apoptosis, Annexin V labelling. It counts as cell-based, human. Conditions: HBE, 10, 20, 40 μg/mL. The method, then:
as §2

Data set [16] has as its system MHCC97H liver cancer cells. Kind of data set: Cell proliferation by CCK-8. Particulars: 50 μg/mL or above, dose-effect relationship. It counts as cell-based. How it is done: (§5) The Chinese liver cancer cell lines HCCLM3 and MHCC97H were taken, and cell proliferation was tested with the addition of methyl aurintricarboxylate. […] (b) A methyl aurintricarboxylate solution was added to the culture medium and the final concentrations of methyl aurintricarboxylate reached 10 μg/mL, 20 μg/mL, 50 μg/mL, 80 μg/mL and 120 μg/mL, respectively. The cells were further incubated for […] before sampling. (c) Cell proliferation was tested by CCK-8 (Cell Counting Kit-8).

Data set [17] concerns HCCLM3 liver cancer cells. Kind of data set: Cell proliferation by CCK-8. The class given is cell-based. Particulars: HCCLM3, 50 μg/mL or above, dose-effect relationship. The method, then: as §5
Data set [18] concerns HBE cells. Kind of data set: Transwell migration assay. The class given is cell-based, human. Particulars: 20 μg/mL, vs blank control. The method, then:
(§6) Cell migration, cell invasion, cell apoptosis, cell colony formation and cytotoxicity experiments were carried out using methods well known to those skilled in the art. […] (1) Cell migration: The Transwell migration assay was carried out to test the migration ability of HBE, A549 and H1299 cells passing pores before and after treatment. The final concentration of methyl aurintricarboxylate was 20 μg/mL.

The test system of data set [19] is A549 cells. Kind of data set: Transwell migration assay. Conditions: A549, 20 μg/mL, vs blank control. The class given is cell-based. How it is done:
as §6

In data set [20] the test system is H1299 cells. Put plainly: Transwell migration assay. It counts as cell-based. Particulars: H1299, 20 μg/mL, vs blank control. The method, then:
as §6

Data set [21] deals with A549 cells. Kind of data set: Agar colony formation assay. The class given is cell-based. Particulars: A549, 20 μg/mL. The method, then:
(§7) Cell migration, cell invasion, cell apoptosis, cell colony formation and cytotoxicity experiments were carried out using methods well known to those skilled in the art. […] (4) Cell colony formation: Agar colony formation assay was carried out on A549 and H1299 cells that were untreated and treated with methyl aurintricarboxylate (final concentration 20 μg/mL).

Data set [22] deals with H1299 cells. Kind of data set: Agar colony formation assay. It counts as cell-based. Conditions: H1299, 20 μg/mL. The method, then: as §7

Take `COC(=O)C[C@](O)(CCC(C)(C)O)C(=O)O[C@@H]1C(OC)=C[C@]23CCCN2CCc2cc4c(cc2[C@H]13)OCO4` [Harringtonin]: the “polysome profile (OD260 nm peaks of 40S, 60S, 1× and polysomes)” value (“polysome profile” below) in [1] is listed as “peak of 1× ribosomes is very high”.

As to `C[C@H]1C[C@@]2(O[C@H]3C[C@H]4[C@@H]5CC[C@H]6C[C@H](O)CC[C@]6(C)[C@H]5[C@@H](O)C[C@]4(C)[C@H]3[C@@]2(C)O)OC1(C)C` [Hippuristanol], the “polysome profile” value in data set [1] was “peaks of 40S and 60S dominate”. In [2], the cell invasion result is given as “effectively reduce”. Besides, the “change in tumor diameter” value in [3] is listed as “tumor shrink significantly”. For the same molecule, in [4], the cell migration entry is reported as “effectively reduce”.

Regarding `C[C@H]1O[C@H](O[C@H]2[C@H](O)[C@@H](O)[C@@H](O)[C@H](O)[C@@H]2O)[C@@H](N)C[C@@H]1NC(=N)C(=O)O` [Kasugamycin], the “polysome profile” value in [1] is “peaks of 40S and 60S dominate”. The cell proliferation entry in [5] was “slows down significantly from day 4”. For the same molecule, the “change in tumor diameter” value in data set [6] is recorded as “tumor shrink significantly”.

In the case of `CC(/C=C/C(C)=C/[C@@H]1Cc2nc(cs2)[C@@H](C)C[C@@H](N)CC(=O)O[C@@H](C)C/C(C)=C/C=C\C(=O)O1)=C\CN(C)C` [Pateamine A], the “polysome profile” value in data set [1] was “peaks of 40S and 60S dominate”.

In the case of `O=C(O)C1=CC(=C(c2ccc(O)c(C(=O)O)c2)c2ccc(O)c(C(=O)O)c2)C=CC1=O` [aurintricarboxylic acid], the “onset concentration (apoptosis)” value in [7] lay in the range of 0.25 to 0.5 mg/mL.

For `N.N.[Cl][Pt][Cl]` [cisplatin], the “inhibition of lung cancer A549 cells” value in data set [8] was 80-90%.

For `COC(=O)c1cc(/C(=C2/C=CC(=O)C(C(=O)O)=C2)c2ccc(O)c(C(=O)O)c2)ccc1O` [methyl aurintricarboxylate, Methyl aurintricarboxylate], the “Percentage of late apoptotic and necrotic cells” value in [9] (10 μg/mL, 48 h) came to 29.1%; in data set [9] (20 μg/mL, 48 h) it was 17.2%; in [9] (50 μg/mL, 48 h), 23.0%; in data set [9] (120 μg/mL, 48 h), 22.6%. For the same molecule, the “late apoptotic+necrotic cells” value in data set [9] (20 μg/mL or above, no obvious dose-effect relationship) is recorded as “do not increase significantly”. For the same molecule, the apoptosis result was “significant effect on promoting apoptosis” in data set [9] (ES-2, 5 μg/mL, 48 h) and “almost all cells are completely apoptotic” in [9] (ES-2, concentrations higher than 20 μg/mL, 48 h). Moreover, the early apoptosis in data set [9] (ES-2, 20 μg/mL, 48 h) came to 67.6%. Moreover, the “effect on normal cell apoptosis” value in [10] is given as “basically no effect”. For the same molecule, the results for the cell apoptosis entry in data set [11], in data set [12] and in [15] were “will induce apoptosis”, “will induce apoptosis” and “will not induce apoptosis”, respectively. Also, the cell invasion entry in data set [13] and in data set [14] was “significantly inhibits the invasion ability” in each case. The “inhibition of cell proliferation” value in data set [16] and in [17] was “obvious inhibitory effect” in each case. Also, the cell migration result in [18] is “little effect”; in data set [19], “significantly inhibits the metastasis ability”; in data set [20], “significantly inhibits the metastasis ability”. The “number of colonies/1000 cells” value in data set [21] and in [22] was “significantly reduced” each time.
